Measurements from paper doi:10.1101/2020.09.29.318170v1 (biorxiv, 2020).

Key:
Type in all cases: biochemical
Pd32 (with PdPP2C55) = biological target: T1, Pd32 (with PdPP2C55) (Phoenix dactylifera, UniProt A0A8B7C461); assay: phosphopeptide phosphatase inhibition assay; conditions: read-out: % inhibition of PdPP2C55 at 10 μM ABA
T1 sequence (A0A8B7C461 1-202): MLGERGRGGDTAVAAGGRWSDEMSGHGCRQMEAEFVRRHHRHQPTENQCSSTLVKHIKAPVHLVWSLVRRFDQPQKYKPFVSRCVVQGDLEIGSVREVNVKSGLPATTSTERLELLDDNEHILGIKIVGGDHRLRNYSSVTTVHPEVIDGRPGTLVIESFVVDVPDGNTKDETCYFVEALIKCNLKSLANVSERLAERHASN

Pd32 (with PdPP2C79) = biological target: T2, Pd32 (with PdPP2C79) (Phoenix dactylifera, UniProt A0A8B7C461); assay: phosphopeptide phosphatase inhibition assay; conditions: read-out: % inhibition of PdPP2C79 at 10 μM ABA
T2 sequence (A0A8B7C461 1-202): T1 sequence (A0A8B7C461 1-202)

Pd27 (with ΔNHAB1) = biological target: T3, Pd27 (with ΔNHAB1) (Phoenix dactylifera, UniProt A0A8B7BJV2); assay: pNPP phosphatase inhibition assay
T3 sequence (A0A8B7BJV2 1-205): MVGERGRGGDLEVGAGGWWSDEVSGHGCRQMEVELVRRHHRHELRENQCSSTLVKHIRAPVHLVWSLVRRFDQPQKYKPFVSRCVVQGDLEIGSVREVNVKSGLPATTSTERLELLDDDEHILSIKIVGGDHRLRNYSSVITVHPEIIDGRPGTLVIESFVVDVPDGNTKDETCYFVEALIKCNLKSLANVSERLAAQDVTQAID
T3 sequence (Q9CAJ0 179-511 partner limits assumed): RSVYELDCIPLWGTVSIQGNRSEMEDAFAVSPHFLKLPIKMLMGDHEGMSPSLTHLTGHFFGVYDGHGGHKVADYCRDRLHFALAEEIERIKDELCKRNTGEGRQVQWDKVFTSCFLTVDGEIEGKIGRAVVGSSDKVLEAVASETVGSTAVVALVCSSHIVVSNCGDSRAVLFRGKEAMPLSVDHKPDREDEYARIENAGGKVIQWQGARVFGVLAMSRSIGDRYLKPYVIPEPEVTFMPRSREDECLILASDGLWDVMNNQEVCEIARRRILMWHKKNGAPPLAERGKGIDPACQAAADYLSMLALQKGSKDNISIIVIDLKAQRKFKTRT

Pd957 (with ΔNHAB1) = biological target: T4, Pd957 (with ΔNHAB1) (Phoenix dactylifera, UniProt A0A8B7BRF0); assay: pNPP phosphatase inhibition assay; conditions: read-out: % inhibition of HAB1 at 10 μM
T4 sequence (A0A8B7BRF0 1-215): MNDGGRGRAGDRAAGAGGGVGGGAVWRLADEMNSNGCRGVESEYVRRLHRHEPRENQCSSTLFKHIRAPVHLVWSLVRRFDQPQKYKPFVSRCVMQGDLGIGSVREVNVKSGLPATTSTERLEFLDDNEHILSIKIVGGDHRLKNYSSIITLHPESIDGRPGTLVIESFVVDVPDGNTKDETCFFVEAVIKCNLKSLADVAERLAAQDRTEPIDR
T4 sequence (Q9CAJ0 179-511 partner limits assumed): T3 sequence (Q9CAJ0 179-511 partner limits assumed)

## CC1=CC(=O)CC(C)(C)[C@@]1(O)/C=C/C(C)=C\C(=O)O [ABA]
Pd32 (with PdPP2C55)
  inhibition at 10 µM: 80%
Pd32 (with PdPP2C79)
  inhibition at 10 µM: 30%

## CCCN1C(=O)CCc2cc(NS(=O)(=O)Cc3ccc(C)cc3)ccc21 [quinabactin]
Pd27 (with ΔNHAB1); read-out: % inhibition of HAB1 at 10 μM
  inhibition at 10 µM: 80%
Pd957 (with ΔNHAB1)
  inhibition at 10 µM: 20 to 30%

## CCCN1C(=O)CCc2cc(NS(=O)(=O)Cc3c(F)c(F)c(C)c(F)c3F)ccc21 [AMF4]
Pd27 (with ΔNHAB1); 10 μM agonist, 1 μM ΔNHAB1, 2 μM receptor, 15 mM pNPP, receptor agonist
  % inhibition of HAB1 at 10 μM: 80%
